According to PubChem BioAssay (NCI):
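Protocol summary: plate cells (96-well), add compound at 5 concentrations, incubate 48 h, interpolate endpoints linearly. GI50 marks 50% less growth. TGI marks complete inhibition of growth.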

Assays:
Assay in all cases: NCI-60 cell line screen, 48 h
NCI-H226 lung = system: NCI-H226 lung
HCT-15 colon = system: HCT-15 colon
OVCAR-3 ovarian = system: OVCAR-3 ovarian
SNB-75 CNS = system: SNB-75 CNS
MDA-N = system: MDA-N
RXF 393 renal = system: RXF 393 renal
BT-549 breast = system: BT-549 breast
OVCAR-5 ovarian = system: OVCAR-5 ovarian
SN12C renal = system: SN12C renal

Structure (SMILES)	TGI (NCI-H226 lung) [µM]	TGI (HCT-15 colon) [µM]	TGI (OVCAR-3 ovarian) [µM]	TGI (SNB-75 CNS) [µM]	TGI (MDA-N) [µM]	TGI (RXF 393 renal) [µM]	TGI (BT-549 breast) [µM]	TGI (OVCAR-5 ovarian) [µM]	TGI (SN12C renal) [µM]	GI50 (OVCAR-3 ovarian) [µM]	GI50 (SNB-75 CNS) [µM]	GI50 (RXF 393 renal) [µM]	GI50 (OVCAR-5 ovarian) [µM]	GI50 (SN12C renal) [µM]	GI50 (NCI-H226 lung) [µM]	GI50 (HCT-15 colon) [µM]	GI50 (BT-549 breast) [µM]
CC(=O)Nc1c(S(=O)(=O)c2ccccc2)c(C)c(C)n1Cc1ccccc1	> 100	> 100	> 100	> 100	> 100	> 100	> 100	> 100	> 100	–	–	–	–	–	–	–	–
Clc1ccc(-c2cn3c(nc4ccccc43)c(/C=C/c3ccco3)n2)cc1	> 100	> 100	> 100	83.5	> 100	> 100	> 100	> 100	> 100	–	–	–	–	–	–	–	–
Cc1c(N=Nc2ccccc2)c(C)n(C2OC(CO)C(O)C(O)C2O)c(=S)c1C#N (stereo not given)	–	> 100	62.9	> 100	> 100	> 100	45.8	81.5	> 100	–	–	–	–	–	–	–	–
CC(=O)Nc1ccc2[nH]c(C(=O)N3CC(CCl)c4c3cc([N+](=O)[O-])c3ccccc43)cc2c1 (stereo not given)	58.8	> 100	> 100	> 64.4	> 100	32.7	> 100	96.9	> 100	–	–	–	–	–	–	–	–
CC(C)(C)c1cc(OCc2nn3c(Cc4ccccc4)nnc3s2)c(Cl)cc1OCc1nn2c(Cc3ccccc3)nnc2s1	> 100	> 100	60.4	> 100	> 100	> 100	> 100	> 100	> 100	–	–	–	–	–	–	–	–
COC(=O)N[C@H](C(=O)O)C(C)O[Si](C)(C)C(C)(C)C (stereo not given in full)	> 100	> 100	> 100	–	–	> 100	> 100	> 100	> 100	–	–	–	–	–	–	–	–
CSc1ccn(C2CC(F)C(CO)O2)c(=O)n1 (stereo not given)	> 100	> 100	> 100	> 100	> 100	> 100	> 100	> 100	> 100	–	–	–	–	–	–	–	–
O=C1C(Cl)=C(N(C(=O)c2ccccc2)C(=O)c2ccccc2)C(=O)c2ccccc21	> 100	9	22.9	24	25.8	15.8	21.7	34.3	61.3	–	–	–	–	–	–	–	–
Cc1nc(C)c(N2CCNCC2)c(=O)[nH]1	> 100	> 100	> 100	> 100	> 100	> 100	> 100	–	> 100	–	–	–	–	–	–	–	–
O=C(NC(=O)c1cc(-c2ccccc2)n[nH]1)c1ccccc1	> 100	> 100	> 100	> 100	> 100	> 100	> 100	> 100	> 100	–	–	–	–	–	–	–	–
CC(=O)Oc1c(-c2ccccc2)sc2ccccc12	28.8	37.1	–	34.8	–	28.1	50	61.5	–	–	–	–	–	–	–	–	–
Cc1cc(S(=O)(=O)Nc2nnc3cnc4ccccc4n23)c(S)cc1Cl	> 100	> 100	> 100	> 100	> 100	> 100	> 100	> 100	> 100	–	–	–	–	–	–	–	–
COC1=CC(=O)CC(C)C12Oc1c(Cl)c(OC)cc(OC)c1C2=O (stereo not given)	> 100	> 100	> 100	28.5	–	43.3	> 89	> 100	> 100	–	–	–	–	–	–	–	–
C=C1C(O)C[C@H](OC(C)=O)[C@]2(C)C1C(OC(C)=O)[C@]1(C(C)(C)O)CC(O)C(C)=C1[C@@H](OC(=O)c1ccccc1)C2OC(C)=O (stereo not given in full)	> 10	> 10	> 10	> 10	> 10	> 10	–	> 10	> 10	–	–	–	–	–	–	–	–
COc1cc2c(c(O)c1OC)CC1CCC(=O)N1C2c1cccc2ccccc12 (stereo not given)	–	82.9	44.6	> 100	31.7	–	41.6	38.2	34.2	–	–	–	–	–	–	–	–
COC1=CC2(CC(OC)=C1OC)OC21COc2ccccc2C1=O (stereo not given)	> 100	> 100	> 100	> 100	–	> 100	> 100	> 100	> 100	–	–	–	–	–	–	–	–
COc1ccccc1NC(=O)CC(=O)N1N=C(N2c3ccccc3Sc3ccccc32)CC1c1ccccc1 (stereo not given)	> 100	> 100	> 100	> 100	–	> 100	> 100	> 100	> 100	–	–	–	–	–	–	–	–
Cc1n[nH]c(=O)n1/N=C\c1ccccc1	> 100	> 100	> 100	–	> 100	50.9	> 100	> 100	> 100	–	–	–	–	–	–	–	–
C/C=C1\CN(C(=O)OC(C)(C)C)C1C(=O)OC(C)(C)C (stereo not given)	–	> 100	> 100	–	> 100	–	> 100	> 100	> 100	–	–	–	–	–	–	–	–
CCOC(=O)Nc1ccc2c(c1)c(CCCCCCc1nc3ccccc3c3ccc(NC(=O)OCC)cc13)nc1ccccc12	81	> 100	58.7	45.3	> 100	> 100	–	> 100	> 100	–	–	–	–	–	–	–	–
COc1ccc2c3c([nH]c2c1)CCN(CCCC(=O)c1ccc(F)cc1)C3	33.2	36.7	32.9	24.8	35.1	28.5	–	27.1	29.7	–	–	–	–	–	–	–	–
CCN(CC)CCN1C(=O)c2c(c3c4ccccc4[nH]c3c3ccc4ccccc4c23)C1=O	–	–	3.03	2.4	–	2.83	–	3.09	3.22	1.65	1.17	1.42	1.64	1.71	–	–	–
c1csc(-c2ccsc2-c2cccs2)c1	> 100	> 100	> 100	> 100	> 100	> 100	–	> 100	> 100	–	–	–	–	–	–	–	–
COc1cc(OC)cc(-c2n/c(=C\c3c(O)[nH]c4ccc(OC)cc34)cc3c2=Nc2ccccc2-3)c1	56.9	15	9.67	34.3	–	27.2	4.7	> 100	> 100	3.45	18.5	5.65	70.2	> 100	26.6	3.85	2.19

Structure (SMILES)	TGI (NCI-H226 lung) [µM]	TGI (HCT-15 colon) [µM]	TGI (OVCAR-3 ovarian) [µM]	TGI (SNB-75 CNS) [µM]	TGI (MDA-N) [µM]	TGI (RXF 393 renal) [µM]	TGI (BT-549 breast) [µM]	TGI (OVCAR-5 ovarian) [µM]	TGI (SN12C renal) [µM]	GI50 (OVCAR-3 ovarian) [µM]	GI50 (SNB-75 CNS) [µM]	GI50 (RXF 393 renal) [µM]	GI50 (OVCAR-5 ovarian) [µM]	GI50 (SN12C renal) [µM]	GI50 (NCI-H226 lung) [µM]	GI50 (HCT-15 colon) [µM]	GI50 (BT-549 breast) [µM]
CC(=O)NC(C)(C)C1CCC(C)=C(c2ccccc2)C1 (stereo not given)	–	> 100	> 100	> 100	> 100	–	> 100	> 100	> 100	–	–	–	–	–	–	–	–
CC(C)=CCC/C(C)=C/COc1c2ccoc2cc2oc(=O)ccc12	87.6	> 100	57.6	–	> 100	–	> 100	75.8	> 100	–	–	–	–	–	–	–	–
C=C(C)COC1CCCCO1 (stereo not given)	> 100	> 100	> 100	> 100	> 100	–	> 100	> 100	> 100	–	–	–	–	–	–	–	–
O=C(/C=C(\S/C=C(/c1ccccc1)N1CCn2c(C(=O)c3ccccc3)c(C(=O)c3ccccc3)c(C(=O)c3ccccc3)c21)C(=O)c1ccccc1)c1ccccc1	–	> 10	> 10	> 10	> 10	–	> 10	> 10	> 10	–	–	–	–	–	–	–	–
O=C1CC[C@@]2(O)[C@H]3Cc4ccc(-c5ccccc5)c5c4[C@@]2(CCN3CC2CC2)[C@H]1O5	50.1	41.2	33.6	–	32.9	23.7	31.3	35.4	72.4	–	–	–	–	–	–	–	–
NNC(=S)NCCNC(=S)NN	–	–	> 100	> 100	> 100	–	> 100	> 100	> 100	–	–	–	–	–	–	–	–
O=C(N/N=C\c1ccc(N(CCCl)CCCl)cc1[N+](=O)[O-])c1cccnc1	> 100	> 100	> 100	> 100	–	> 100	> 100	> 100	> 100	> 100	> 100	> 100	> 100	> 100	> 100	> 100	> 100
NC(CSSCC(N)=NCC12CC3CC(CC(C3)C1)C2)=NCC12CC3CC(CC(C3)C1)C2	43.3	25	35.6	45.2	–	> 100	–	34.2	31.1	–	–	–	–	–	–	–	–
O=C(Nc1cccc([N+](=O)[O-])c1)c1n[nH]n(-c2cccc([N+](=O)[O-])c2)c1=O	> 100	–	–	> 100	> 100	> 100	–	> 100	> 100	–	–	–	–	–	–	–	–
COC(=O)c1c(O)ccc2[nH]c3c(O)c4ccccc4cc3c12	> 100	48.1	31.6	–	65	> 100	> 100	> 100	> 100	–	–	–	–	–	–	–	–
Cn1cc(-c2ccc3cc(-c4ccc(CC(=O)Nc5cc(C(C)(C)C)on5)cc4)cnc3c2)cn1	34.6	4.87	12.7	3.03	–	–	31.8	18.9	10.4	2.49	1.11	–	4.4	1.15	2.46	0.466	2.08
O=c1ccn(C2OC(CO)C(O)C2F)c(=O)n1Cc1ccccc1 (stereo not given)	> 100	> 100	> 100	> 100	> 100	> 100	–	> 100	> 100	–	–	–	–	–	–	–	–
CC1(C)CCC(C)(C)C1C(=O)NC(O)C(=O)O (stereo not given)	> 100	> 100	–	> 100	> 100	–	–	> 100	> 100	–	–	–	–	–	–	–	–
S=c1[nH]n2c(CCCCCCCCc3nnc4sc(=S)[nH]n34)nnc2s1	> 100	> 100	> 100	> 100	> 100	–	> 100	> 100	> 100	–	–	–	–	–	–	–	–
CC(=O)Oc1ccc2c(c1)CC[C@@H]1C2[C@@H](O[N+](=O)[O-])C[C@@]2(C)C1CC[C@@H]2O[N+](=O)[O-] (stereo not given in full)	–	28.1	28.5	28.7	28.2	23.7	33.8	33.7	29.5	–	–	–	–	–	–	–	–
O=C(N=c1ccc2nc(=O)[nH]n(O)c-2c1)C(F)(F)F	> 100	> 100	> 100	> 100	> 100	–	> 100	> 100	> 100	–	–	–	–	–	–	–	–
COC(=O)c1ccc(C)cc1CC1Cc2ccc(C)cc2C1=O (stereo not given)	27.2	13.1	25.3	43.8	–	28.8	52.6	92.4	32.7	–	–	–	–	–	–	–	–
Cc1oc2c(c1C)S(=O)(=O)C(C#N)=C(N(C)C)N2	> 100	> 100	> 100	> 100	> 100	–	> 100	> 100	> 100	–	–	–	–	–	–	–	–
Cc1cccc(N2C(=O)C3c4[nH]c5ccccc5c4C4CCC(C(C)(C)C)CC4C3C2=O)c1 (stereo not given)	34.1	> 100	27.4	–	30.7	26.3	33.5	35.2	30.5	–	–	–	–	–	–	–	–
CCOC(=O)NC(OC)(C(F)(F)F)C(F)(F)F	> 100	> 100	> 100	> 100	> 100	> 100	> 100	–	–	–	–	–	–	–	–	–	–
C=C1CC(Cn2ccc(=O)[nH]c2=O)(c2ccc(Cl)cc2)OC1=O (stereo not given)	49.9	6.91	21.8	30.9	17.1	–	18	30.5	28.1	–	–	–	–	–	–	–	–
COC(=O)c1c(C#N)c(N)nc2c1CCC2	> 100	> 100	–	–	> 100	> 100	> 100	> 100	> 100	–	–	–	–	–	–	–	–
Cc1ccc(C2=C(C#N)C(N)OC3=C2COc2ccccc23)cc1 (stereo not given)	> 100	> 100	41.9	–	> 100	–	> 100	–	74.4	–	–	–	–	–	–	–	–
Cn1c(CO)ccc1-c1ccc(-c2ccc[se]2)[se]1	4.78	> 100	–	37.2	> 61.5	26.4	> 81.4	–	99.5	–	–	–	–	–	–	–	–
